Experiments:
Experiment in all cases: relative viability (nuclei count vs DMSO), 5 days (fraction); higher = more cells survive
[1] = compound: CN(C)C/C=C/C(=O)Nc1cc2c(Nc3ccc(F)c(Cl)c3)ncnc2cc1O[C@H]1CCOC1 [Afatinib] + Nc1nc2[nH]cc(CCc3ccc(C(=O)N[C@@H](CCC(=O)O)C(=O)O)cc3)c2c(=O)[nH]1 [Pemetrexed] (partner 0.2 µM)
Method in brief: (§1)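 Relative viability equals treated-well nuclei counts divided by vehicle-well nuclei counts. Counts came from 4× images of lung cancer cell lines grown in 1536-well plates for 5 days after pin-tool dosing on the day after seeding. Dosing used one drug alone or a fixed anchor-drug dose plus five library-drug doses (not always all listed) in √10 steps, and values are medians of duplicate plates.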

[2] = compound: CN(C)C/C=C/C(=O)Nc1cc2c(Nc3ccc(F)c(Cl)c3)ncnc2cc1O[C@H]1CCOC1 [Afatinib] + C[C@]1(O)C[C@@H](c2nc(-c3ccc4ccc(-c5ccccc5)nc4c3)c3c(N)nccn32)C1 [Linsitinib] (partner 1 µM)
Method in brief: as §1

[3] = compound: CN(C)C/C=C/C(=O)Nc1cc2c(Nc3ccc(F)c(Cl)c3)ncnc2cc1O[C@H]1CCOC1 [Afatinib] + CC1(C)CCC(c2ccc(Cl)cc2)=C(CN2CCN(c3ccc(C(=O)NS(=O)(=O)c4ccc(N[C@H](CCN5CCOCC5)CSc5ccccc5)c(S(=O)(=O)C(F)(F)F)c4)cc3)CC2)C1 [Navitoclax] (partner 0.5 µM)
Method in brief: as §1

[4] = compound: CN(C)C/C=C/C(=O)Nc1cc2c(Nc3ccc(F)c(Cl)c3)ncnc2cc1O[C@H]1CCOC1 [Afatinib] + O=C(CCCCCCC(=O)Nc1ccccc1)NO [Vorinostat] (partner 1 µM)
Method in brief: as §1

Cell Line | relative viability ([1]; first compound 0.005 µM) | relative viability ([1]; first compound 0.01581 µM) | relative viability ([1]; first compound 0.05 µM) | relative viability ([1]; first compound 0.1581 µM) | relative viability ([1]; first compound 0.5 µM) | relative viability ([2]; first compound 0.005 µM) | relative viability ([2]; first compound 0.01581 µM) | relative viability ([2]; first compound 0.05 µM) | relative viability ([2]; first compound 0.1581 µM) | relative viability ([2]; first compound 0.5 µM) | relative viability ([3]; first compound 0.005 µM) | relative viability ([3]; first compound 0.01581 µM) | relative viability ([3]; first compound 0.05 µM) | relative viability ([3]; first compound 0.1581 µM) | relative viability ([3]; first compound 0.5 µM) | relative viability ([4]; first compound 0.005 µM) | relative viability ([4]; first compound 0.01581 µM) | relative viability ([4]; first compound 0.05 µM) | relative viability ([4]; first compound 0.1581 µM) | relative viability ([4]; first compound 0.5 µM)
PC-3 [JPC-3] | 0.514 | 0.384 | 0.462 | 0.414 | 0.431 | 0.593 | 0.451 | 0.439 | 0.461 | 0.392 | 0.398 | 0.345 | 0.341 | 0.324 | 0.32 | 0.531 | 0.339 | 0.287 | 0.326 | 0.328
PC-14 | 0.155 | 0.155 | 0.164 | 0.165 | 0.149 | 0.271 | 0.255 | 0.176 | 0.237 | 0.23 | 0.377 | 0.334 | 0.372 | 0.334 | 0.349 | 0.112 | 0.0624 | 0.108 | 0.0886 | 0.124
RERF-LC-KJ | 0.466 | 0.442 | 0.484 | 0.481 | 0.453 | 0.888 | 0.9 | 0.76 | 0.656 | 0.716 | 0.786 | 0.766 | 0.874 | – | 0.751 | 0.713 | 0.636 | 0.544 | 0.574 | 0.519
SK-LU-1 | 0.967 | 0.816 | 1.03 | 0.948 | 0.969 | 1.39 | 1.11 | 1.2 | 1.02 | 1.01 | 0.98 | 0.719 | 0.757 | 0.861 | 0.842 | 0.727 | 0.806 | 0.767 | 0.771 | 0.738
SK-MES-1 | 0.386 | 0.707 | 0.472 | 0.438 | 0.434 | 1 | 0.975 | 0.543 | 0.406 | 0.429 | 1.16 | 0.965 | 0.655 | 0.731 | 0.556 | 0.542 | 0.816 | 0.509 | 0.54 | 0.506
SW 1573 | 0.747 | 0.852 | 0.86 | 0.769 | 0.861 | 0.773 | 0.865 | 0.649 | 0.731 | 0.703 | 0.878 | 1.08 | 1.13 | 0.819 | 0.943 | 0.696 | 0.682 | 1.01 | 0.692 | 0.777
UMC-11 | 0.892 | 0.814 | 0.846 | 0.738 | 0.722 | 0.996 | 0.973 | 1.04 | 0.97 | 1.04 | 0.361 | 0.305 | 0.294 | 0.296 | 0.293 | 0.378 | 0.361 | 0.347 | 0.416 | 0.364

Source: the supplement of paper PMC10307832
